Results published in patent US5594144A, “Tropolone derivatives and pharmaceutical composition thereof for preventing and treating ischemic diseases” (The Upjohn Company, priority 1990, dated 1997).

Columns and labels:
[1] = test system: Brain microsomal fractions; assay: in vitro Anti-lipid peroxidation effect (TBAR production, Fe3+-ADP/NADPH); type: biochemical, rat (SD strain, male)
Procedure: 1. in vitro Anti-lipid peroxidation effect
Brain microsomal fractions were prepared from male rats of SD strain, and a portion (0.2 mg protein) was incubated at 37° C. for 15 minutes with a mixture of Fe^3+ (0.1 mM)--ADP (0.5 mM) in the presence or absence of the test compound, in final volume of 1 ml of 10 mM HEPES, 150 mM KCl, 0.2 mM NADPH, pH 7.4. After incubation, 1.5 ml of TCA-TBA-HCl reagent (16.7% trichloroacetic acid, 0.4% thiobarbituric acid, 0.278N hydrochloric acid) was added and the reaction mixture was heated in a boiling water for 15 minutes. After cooling in ice-bath, the reaction mixture was centrifuged, and the absorbance of the supernatant at 535 nm was measured. The amount of thiobarbituric acid reactive substance (TBAR) was obtained by calculation using an extinction coefficient of 1.56×10^5 […]. […] The results are shown in Table 1A for compounds of the formulas IA, IB, and IC, respectively. The compounds with highest inhibition rate have the greatest anti-lipid peroxidation effect.

[2] = test system: pig right coronary artery; assay: in vitro Ca-antagonism (high K+ induced 45Ca-influx); type: cell-based; conditions: Sus scrofa, K+ 75 mM
Procedure: 2. in vitro Ca-antagonism
A strip of pig right coronary artery was depolarized with high K^+ (75 mM) for 30 minutes to induce voltage dependent ^45 Ca-influx. The extracellular ^45 Ca was chelated by adding EGTA and removed by washing, then the strip was lysed at 100° C. ^45 Ca in this lysate was measured as intracellular ^45 Ca by a scintillation counter. The concentration of the test compound was 10^-7, 10^-6, 10^-5 M, and applied until depolarization by K^+ was completed. Ratio of inhibition at various concentrations of the test compounds for increasing the intracellular ^45 Ca by K^+ was determined. The compound with high inhibition ratio has strong Ca-antagonism.

SMILES | Anti-Lipid Peroxidation (% inhibition) 10 μM [1] | Anti-Lipid Peroxidation (% inhibition) 50 μM [1] | inhibition at 10 µM [2]
CC(C)c1ccc(CN2CCN(C(c3ccc(F)cc3)c3ccc(F)cc3)CC2)c(=O)c(NCCCN(C)C)c1 [Compound 2C, 7-[4-(4,4'-difluorobenzhydryl)piperazino-1-methyl]-2-(N-3-dimethylaminopropylamino)-4-isopropyl-2,4,6-cycloheptatrien-1-one] | 29.6% | 90.8% | 63%
COc1cc(C(C)C)ccc(C(c2ccccc2)N2CCN(C(c3ccccc3)c3ccc(Cl)cc3)CC2)c1=O (stereo not drawn) [Compound 3A, 7-{1-[4-(4-chlorobenzhydryl)piperazinomethyl]-α-phenyl}-4-isopropyl-2-methoxy-2,4,6-cycloheptatrien-1-one] | 13.8% | 16.3% | 0%
CNCCNc1cc(C(C)C)ccc(CN2CCN(C(c3ccc(F)cc3)c3ccc(F)cc3)CC2)c1=O [Compound 3C, 7-[4-(4,4'-difluorobenzhydryl)piperazino-1-methyl]-4-isopropyl-2-(N-2-methylaminoethylamino)-2,4,6-cycloheptatrien-1-one] | 88.0% | 91.6% | 49%
COc1cc(C(C)C)ccc(C(C)N2CCN(C(c3ccccc3)c3ccc(Cl)cc3)CC2)c1=O (stereo not drawn) [Compound 4A, 7-{1-[4-(4-chlorobenzhydryl)]piperazinomethyl-α-methyl-}-4-isopropyl-2-methoxy-2,4,6-cycloheptatrien-1-one] | 25.8% | 75.1% | 45%
COc1cc(C(C)C)ccc(C2Sc3ccccc3N2Cc2ccccn2)c1=O (stereo not drawn) [Compound 4B, 2-(2'-oxo-3'-methoxy-5'-isopropyl-3',5',7'-cycloheptatrienyl)-3-(2-picolyl)benzothiazoline] | 95.7% | 99.3% | 
CC(C)c1ccc(CN2CCN(C(c3ccc(F)cc3)c3ccc(F)cc3)CC2)c(=O)c(NCCN)c1 [Compound 4C, 2-(N-2-aminoethylamino)-7-[4-(4,4'-difluorobenzhydryl)piperazino-1-methyl]-4-isopropyl-2,4,6-cycloheptatrien-1-one] | 45.2% | 92.9% | 54%
CCCCC(c1ccc(C(C)C)cc(OC)c1=O)N1CCN(C(c2ccccc2)c2ccc(Cl)cc2)CC1 (stereo not drawn) [Compound 5A] | 30.5% | 38.7% | 19%
COc1cc(C(C)C)ccc(C2Sc3ccccc3N2Cc2cccnc2)c1=O (stereo not drawn) [Compound 5B, 2-(2'-oxo-3'-methoxy-5'-isopropyl-3',5',7'-cycloheptatrienyl)-3-(3-picolyl)benzothiazoline] | 95.9% | 100% | 
CC(C)c1ccc(CN2CCN(C(c3ccc(F)cc3)c3ccc(F)cc3)CC2)c(=O)c(N(C)CCN(C)C)c1 [Compound 5C, 7-[4-(4,4'-difluorobenzhydryl)piperazino-1-methyl]-2-(N-2-dimethylaminoethyl-N-methylamino)-4-isopropyl-2,4,6-cycloheptatrien-1-one] | 32.2% | 90.6% | 94%
COc1cc(C(C)C)ccc(CN2CCN(C(c3ccccc3)c3ccccc3)CC2)c1=O [Compound 6A, 7-(4-benzhydrylpiperazino-1-methyl)-4-isopropyl-2-methoxy-2,4,6-cycloheptatrien-1-one] | 15.9% | 63.2% | 100%
CCN(CCN(C)C)c1cc(C(C)C)ccc(CN2CCN(C(c3ccc(F)cc3)c3ccc(F)cc3)CC2)c1=O [Compound 6C, 7-[4-(4,4'-difluorobenzhydryl)piperazino-1-methyl]-2-(N-2-dimethylaminoethyl-N-ethylamino)-4-isopropyl-2,4,6-cycloheptatrien-1-one] | 35.9% | 91.5% | 87%
COc1cc(C(C)C)ccc(C2Sc3ccccc3N2CCc2ccccn2)c1=O (stereo not drawn) [Compound 7B, 2-(2'-oxo-3'-methoxy-5'-isopropyl-3',5',7'-cycloheptatrienyl)-3-[2-(2-pyridyl)ethyl]benzothiazoline] | 91.9% | 94.3% | 
CCN(CC)CCNc1cc(C(C)C)ccc(CN2CCN(C(c3ccc(F)cc3)c3ccc(F)cc3)CC2)c1=O [Compound 7C, 2-(N-2-diethylaminoethylamino)-7-[4-(4,4'-difluorobenzhydryl)piperazino-1-methyl]-4-isopropyl-2,4,6-cycloheptatrien-1-one] | 21.3% | 90.4% | 67%
COc1cc(C(C)C)ccc(CN2CCN(C(c3ccc(C(F)(F)F)cc3)c3ccc(C(F)(F)F)cc3)CC2)c1=O [Compound 8A, 7-{4-[4,4'-di(trifluoromethyl)benzhydryl]piperazino-1-methyl}-4-isopropyl-2-methoxy-2,4,6-cycloheptatrien-1-one] | 32.3% | 51.8% | 27%
COc1ccc(CCN2c3ccccc3SC2c2ccc(C(C)C)cc(OC)c2=O)cc1OC (stereo not drawn) [Compound 8B, 2-(2'-oxo-3'-methoxy-5'-isopropyl-3',5',7'-cycloheptatrienyl)-3-[2-(3,4-dimethoxyphenyl)ethyl]benzothiazoline] | 93.4% | 93.8% | 
CC(C)c1ccc(CN2CCN(C(c3ccc(F)cc3)c3ccc(F)cc3)CC2)c(=O)c(NCCNCCN)c1 [Compound 8C, 2-[N-2-(N'-2-aminoethylamino)ethylamino]-7-[4-(4,4'-difluorobenzhydryl)piperazino-1-methyl]-4-isopropyl-2,4,6-cycloheptatrien-1-one] | 33.1% | 92.2% | 60%
COc1cc(C(C)C)ccc(CN2CCN(C(c3ccccc3)c3ccc(C(F)(F)F)cc3)CC2)c1=O (stereo not drawn) [Compound 9A, 4-isopropyl-2-methoxy-7-[4-(4-trifluoromethylbenzhydryl)piperazino-1-methyl]-2,4,6-cycloheptatrien-1-one] | 29.2% | 88.1% | 45%
COc1cc(C(C)C)ccc(C2Sc3ccccc3N2Cc2ccc3ccccc3n2)c1=O (stereo not drawn) [Compound 9B, 2-(2'-oxo-3'-methoxy-5'-isopropyl-3',5',7'-cycloheptatrienyl)-3-(2-quinolyl)methylbenzothiazoline] | 94.9% | 96.6% | 
CC(C)c1ccc(CN2CCN(C(c3ccc(F)cc3)c3ccc(F)cc3)CC2)c(=O)c(NCCNc2ccccn2)c1 [Compound 9C, 7-[4-(4,4'-difluorobenzhydryl)piperazino-1-methyl]-4-isopropyl-2-[N-2-(2-pyridylamino)ethylamino]-2,4,6-cycloheptatrien-1-one] | 88.1% | 91.6% | 38%
COc1cc(C(C)C)ccc(C2Sc3ccccc3N2CCCN2CCN(C(c3ccc(F)cc3)c3ccc(F)cc3)CC2)c1=O (stereo not drawn) [Compound 13B, 2-(2'-oxo-3'-methoxy-5'-isopropyl-3',5',7'-cycloheptatrienyl)-3-{3-[4-(4',4'-difluorobenzhydryl)piperazin-1-yl)propyl}benzothiazoline] | 91.8% | 94.4% | 
CC(C)c1ccc(C2Sc3ccccc3N2CCc2ccccc2)c(=O)c(N2CCNCC2)c1 (stereo not drawn) [Compound 15B, 2-[2'-oxo-3'-(1-piperazinyl)-5'-isopropyl-3',5',7'-cycloheptatrienyl]-3-phenethylbenzothiazoline] | 93.0% | 94.4% | 
CC(C)c1ccc(C2Sc3ccccc3N2CCc2ccccc2)c(=O)c(NCCN(C)C)c1 (stereo not drawn) [Compound 16B] | 91.2% | 95.1% | 
CC(C)c1ccc(CN2CCN(C(c3ccc(F)cc3)c3ccc(F)cc3)CC2)c(=O)c(OCCCN(C)CCc2ccccc2)c1 [Compound 18A, 7-[4-(4,4'-difluorobenzhydryl)piperazino-1-methyl]-2-[3-(N-methyl-N-phenethylamino)propoxy]-4-isopropyl-2,4,6-cycloheptatrien-1-one] | 37.0% | 93.1% | 
